Measured values published in article PMC10045301, “The Role of Pyrazolo[3,4-d]pyrimidine-Based Kinase Inhibitors in The Attenuation of CCl4-Induced Liver Fibrosis in Rats” (Antioxidants, 2023).
Like-named read-outs stand apart in the source and are kept apart here. Blank lines part the entries; values can stand above or below the molecule they belong to.

Key:
[1] = Cytotoxicity MTT assay; assay type: cell-based; conditions: human, HepG2 cells (hepatocellular carcinoma cell line), HepG2, MTT, mean ± SEM, n = 3
Experimental: (§1) MTT assay was used to estimate cell viability potential for 24 h using hepatocellular carcinoma cell line (HepG2) as previously reported. Calculation of the relative cell viability percentage was performed following the equation: % Relative cell viability = (Absorbance of treated samples/Absorbance of untreated sample) × 100.

[2] = system: healthy adult Sprague–Dawley male rats; assay: In vivo toxicity study, 6 weeks oral daily; parameters: species or system rat; conditions: plasma, oral daily 6 weeks, dose equimolar to celecoxib 20 mg/kg; mean ± SEM, n = 6
Experimental: (§2) Ninety-eight healthy adult Sprague–Dawley male rats with an average weight of 150 ± 20 g were obtained from the animal facility at the Institute of Graduate Studies and Research, Alexandria University, Egypt. Animals were provided with a balanced commercial diet ad libitum and adapted for two weeks prior to the experiment. All animals were sacrificed under IP thiopental anesthesia (50 mg/kg) 48 h after the last treatment.
Blood samples were collected using cardiac puncture in Li-heparin tubes and centrifuged at 2000× g for 10 min to obtain the plasma. Then, the determination of hepatic biomarkers and renal profile was performed according to kits purchased from Roche Diagnostics, USA, using a Roche/Hitachi analyzer (cobas c 311, cobas c 501/502). […]

[3] = system: induced liver fibrosis; conditions: cited from earlier work
[4] = system: induced liver fibrosis; conditions: injected subcutaneously 3.6 µL/day, mice models; cited from earlier work
[5] = biological target: T1, COX-1 (Ovis aries, UniProt P05979); assay: In vitro COX-1 inhibition assay (Cayman colorimetric COX (ovine) inhibitor screening kit); assay type: biochemical; conditions: mean ± SEM, n = 3
T1 construct: purchased Cayman Chemicals, Ann Arbor, MI, USA 560131
T1 sequence (P05979 25-600): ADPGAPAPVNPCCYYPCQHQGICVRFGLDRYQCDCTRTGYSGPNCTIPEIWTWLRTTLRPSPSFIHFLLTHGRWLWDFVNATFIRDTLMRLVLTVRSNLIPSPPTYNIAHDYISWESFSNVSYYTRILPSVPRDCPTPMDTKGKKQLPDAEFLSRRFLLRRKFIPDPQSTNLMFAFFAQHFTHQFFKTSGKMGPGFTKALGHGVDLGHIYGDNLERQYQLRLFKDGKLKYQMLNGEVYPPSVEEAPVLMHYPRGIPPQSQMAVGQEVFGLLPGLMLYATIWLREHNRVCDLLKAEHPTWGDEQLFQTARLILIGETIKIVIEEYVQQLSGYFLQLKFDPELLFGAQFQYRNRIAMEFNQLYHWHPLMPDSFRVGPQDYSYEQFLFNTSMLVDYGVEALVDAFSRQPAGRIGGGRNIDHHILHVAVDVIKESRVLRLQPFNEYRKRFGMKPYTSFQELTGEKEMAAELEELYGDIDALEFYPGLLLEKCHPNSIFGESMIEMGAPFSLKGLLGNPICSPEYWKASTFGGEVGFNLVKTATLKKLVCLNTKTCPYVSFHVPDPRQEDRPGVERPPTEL

[6] = system: hepatocellular carcinoma cell line (HepG2); assay: Cytotoxicity MTT assay; assay type: cell-based; conditions: human, 24 h
Experimental: as §1

[7] = system: CCl4-induced liver fibrosis in male Sprague–Dawley rats; assay: Therapeutic model treated after induction of CCl4 liver fibrosis; assay type: in vivo, rat; conditions: for redox status (MDA, GSH, SOD in liver homogenate): oral daily weeks 7-12 after CCl4, compared to Clx
Experimental: as §2
Blood samples were collected using cardiac puncture in Li-heparin tubes and centrifuged at 2000× g for 10 min to obtain the plasma. Then, the determination of hepatic biomarkers and renal profile was performed according to kits purchased from Roche Diagnostics, USA, using a Roche/Hitachi analyzer (cobas c 311, cobas c 501/502).
Rats were sacrificed by exsanguination following blood sample collection. The livers were excised, rinsed with cold saline, and dried on filter paper. A portion of each excised liver was put in 10% formalin solution, and then embedded in paraffin and sliced into 4–5 µm sections for histological evaluation. Another part of each liver was snap frozen and stored at −80 °C for later analyses of markers. The remaining tissue was stored in RNAlater solution (Qiagen, Germany, Mat. No. 1018087, lot no. 148052467) for qRT-PCR.
Sections from formalin-fixed paraffin-embedded (FFPE) liver tissues were stained with hematoxylin and eosin and Masson trichrome stain to evaluate liver necrosis and fibrosis. The scores of liver fibrosis degree were evaluated according to a 4-tiered scoring system following the criteria: score 0 = absent fibrosis where scanty fibrous tissue is seen only in portal tracts, score 1 = minimal fibrosis (expanded portal tracts with short fibrous septea may be extending from portal tracts), score 2 = mild fibrosis (long fibrous septea is extending from portal tracts with occasional bridging to other portal tracts or to central veins), score 3 = moderate fibrosis (frequent portal to portal or to central vein bridging with infrequent pseudolobule formation), and score 4 = severe fibrosis (nodular liver with evident pseudolobule formation). For collagen morphological quantification, multiple random pictures of the trichrome-stained section were taken using a microscope-adopted camera at ×400 power. The collagen-positive area stained in blue was evaluated using ImageJ software and then calculated as a percentage of the total field area. At least eight fields were assessed and the mean value was then calculated.
Four-micron sections were cut and mounted on positively charged slides. They were stained with smooth muscle actin (SMA) monoclonal primary antibody (Dako, Denmark; CodeIR611, lot no. 41247585) using Dako auto Stainer (autostainer Link 48). A positive control (leiomyoma) was used in each run. Immune-stained slides were assessed, and ten high power fields of each section were photographed using a Leica camera. Photos were analyzed using ImageJ software to record the immune-positive area (seen as brown staining) in each photo. Then, the positively stained area percentage was calculated as a mean of the 10 examined photos for each rat.
Protein content determination was performed according to Bradford using bovine serum albumin as a standard. A volume of 5 μL of each sample and standard was first added to each well then 250 μL of Ready-To-Use Coomassie Blue G-250 Based Reagent (Thermo Scientific, Waltham, MA, USA; Prod no. 23200, lot no. UE285518) was added. The microplate was put on the shaker for 30 s and then incubated for 10 min at RT. Absorbance was read at […] using a microplate reader.
The malondialdehyde (MDA) level was estimated using the thiobarbituric acid method as previously described. Liver glutathione was estimated using a colorimetric kit (Biodiagnostics, Egypt; catalog no. GR 25 11) according to the method of Beutler et al.. […]

[8] = liver tissue homogenate, after CCl4

Compound: Cc1ccc(-c2cc(C(F)(F)F)nn2-c2ccc(S(N)(=O)=O)cc2)cc1 [Celecoxib, celecoxib, reference compound]
IC50 at 24 h [1]: 144.6 ± 1.08 µM | ALP [2]: 138.66 ± 13.40 U/L | ALT [2]: 42 ± 3.33 U/L | AST [2]: 147.5 ± 18.65 U/L | Albumin [2]: 3.73 ± 0.06 g/dL | Cholesterol [2]: 52.5 ± 2.21 mg/dL | Creatinine [2]: 0.35 ± 0.01 mg/dL | Total Bilirubin [2]: 0.084 ± 0.006 mg/dL | Triglycerides [2]: 53 ± 7.11 mg/dL | effect on induced liver fibrosis ([3]; 15 mg/kg/day orally, rat models): no effect | effect on induced liver fibrosis ([3]; 20 mg/kg/day orally): potentiality in the attenuation of induced liver fibrosis | effect on induced liver fibrosis [4]: no effect

IC50 [5]: 7.5 ± 0.09 µM
Compound: COc1ccc(/C=N/Nc2ncnc3c2cnn3-c2ccccc2)cc1 [Compound D1]
IC50 at 24 h [1]: 370.7 ± 0.089 µM | Safety Index (SI) [6]: 2745.9 | ALP [2]: 159.5 ± 7.48 U/L | ALT [2]: 49.66 ± 4.99 U/L | AST [2]: 139.5 ± 7.78 U/L | Albumin [2]: 3.9 ± 0.12 g/dL | Cholesterol [2]: 71.66 ± 7 mg/dL | Creatinine [2]: 0.36 ± 0.03 mg/dL | Total Bilirubin [2]: 0.073 ± 0.004 mg/dL | Triglycerides [2]: 67 ± 5.42 mg/dL | redox status (MDA, GSH, SOD in liver homogenate) [7]: no significance difference to Clx treatment

IC50 [5]: 8.5 ± 0.04 µM
Compound: COc1ccc(/C=N/Nc2ncnc3c2cnn3-c2ccccc2)cc1OC [Compound D2]
IC50 at 24 h [1]: 344.95 ± 0.3 µM | Safety Index (SI) [6]: 3349.0 | ALP [2]: 154.16 ± 10.92 U/L | ALT [2]: 39.66 ± 2.13 U/L | Albumin [2]: 3.78 ± 0.12 g/dL | Cholesterol [2]: 67 ± 6.47 mg/dL | Creatinine [2]: 0.37 ± 0.01 mg/dL | Total Bilirubin [2]: 0.071 ± 0.01 mg/dL | Triglycerides [2]: 61.83 ± 7.11 mg/dL | hepatic mRNA expression of MMP-9 ([7]; after CCl4 and treatment, vs model and control): more significant reduction, reaching a low MMP-9 level near that of the control group | reduction of TGF-β compared to celecoxib ([7]; hepatic mRNA, after CCl4 and treatment): more significant than celecoxib | proinflammatory and profibrogenic cytokines (TNF-α protein, TGF-β and IL-6 gene expression) ([7]; liver, after CCl4 and treatment): decreased considerably reaching the control level | severity of fibrosis (architecture, fibrotic score, collagen- and α-SMA-positive areas, α-SMA and COL1A1 mRNA) ([7]; oral daily weeks 7-12 after 6 weeks CCl4, vs model and Clx group): best effect | redox status (MDA, GSH, SOD in liver homogenate) [7]: best enhancement | restoration of increased plasma ALT and AST ([7]; plasma, after CCl4 and treatment): more significant

IC50 [5]: 11.5 ± 0.05 µM
Compound: COc1cc(/C=N/Nc2ncnc3c2cnn3-c2ccccc2)cc(OC)c1OC [Compound D3]
IC50 at 24 h [1]: 356.5 ± 2.9 µM | Safety Index (SI) [6]: 4042.7 | ALP [2]: 123.16 ± 4.12 U/L | ALT [2]: 37.83 ± 2.45 U/L | AST [2]: 147.33 ± 9.81 U/L | Albumin [2]: 3.86 ± 0.12 g/dL | Cholesterol [2]: 62.33 ± 1.68 mg/dL | Creatinine [2]: 0.42 ± 0.02 mg/dL | Total Bilirubin [2]: 0.076 ± 0.006 mg/dL | Triglycerides [2]: 64 ± 8.01 mg/dL | MDA level compared to Clx [7, 8]: significantly better that Clx | SOD compared to Clx [7, 8]: equal to it | reduced GSH compared to Clx [7, 8]: worse
